Results as given in patent US20230077362A1 (CORTEVA AGRISCIENCE LLC, priority 2019, published 2023).
Read-outs that look alike come from different tables or passages of the source.

Columns and labels:
Format in all cases: in vivo
[1] = system: Cabbage Looper (Trichoplusia ni) ("CL"), second instar larvae; experiment: Bioassay on cabbage looper (CL), 128-well diet tray assay; details: Trichoplusia ni
In short: (§1)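 Sealed trays, 25° C., 14:10 light:dark, 5–7 d. Per-well % mortality recorded, mean of eight wells reported.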

[2] = system: Beet Armyworm (Spodoptera exigua) ("BAW"), second instar larvae; experiment: Bioassay on beet armyworm (BAW), 128-well diet tray assay; details: Spodoptera exigua
In short: as §1

[3] = system: Green Peach Aphid ("GPA") (Myzus persicae), wingless adult and nymph stages; experiment: Bioassay on green peach aphid (GPA), foliar spray on infested cabbage seedlings; details: Myzus persicae, foliar, 72 h
Experimental: Certain molecules disclosed in this document were tested against GPA using procedures described in the following example. In the reporting of the results, the “GPA Rating Table” was used (See Table Section).
Cabbage seedlings grown in 3-inch pots, with 2-3 small (3-5 cm) true leaves, were used as test substrate. The seedlings were infested with 20-50 GPA (wingless adult and nymph stages) one day prior to chemical application. Four pots with individual seedlings were used for each treatment. Test compounds (2 mg) were dissolved in 2 mL of acetone/methanol (1:1) solvent, forming stock solutions of 1000 ppm test compound. […] A hand-held aspirator-type sprayer was used for spraying a solution to both sides of […] leaves until runoff. Reference plants (solvent check) were sprayed with the diluent only containing 20% by volume of acetone/methanol (1:1) solvent. Treated plants were held in a holding room for three days at approximately 25° C. and ambient relative humidity (RH) prior to grading. Evaluation was conducted by counting the number of live aphids per plant under a microscope.
Corrected % Control=100*(X−Y)/X • where • X=No. of live aphids on solvent check plants and • Y=No. of live aphids on treated plants
The results are indicated in the table entitled “Table ABC: Biological Results” (See Table Section).

[4] = read-out: CL (Biological Results, rating)
[5] = read-out: BAW (Biological Results, rating)
[6] = read-out: GPA (Biological Results, rating)

| SMILES | pest or weed control at 50 µg/cm2 [1, 4] [%] | pest or weed control at 50 µg/cm2 [2, 5] [%] | pest or weed control at 200 µg/mL [3, 6] [%] | pest or weed control at 50 µg/cm2 ([1]; read-out: CL rating) [%] | pest or weed control at 50 µg/cm2 ([2]; read-out: BAW rating) [%] | pest or weed control at 200 µg/mL ([3]; read-out: GPA rating) [%] |
| --- | --- | --- | --- | --- | --- | --- |
| Cc1ccc(COCC(F)(F)F)c(N2C(=O)CS/C2=N\C(=O)Nc2ccc(-c3ncn(-c4ccc(C#N)cc4)n3)cc2F)c1 [Compound J289, (Z)-1-(4-(1-(4-Cyanophenyl)-1H-1,2,4-triazol-3-yl)-2-fluorophenyl)-3-(3-(5-methyl-2-((2,2,2-trifluoroethoxy)methyl)phenyl)-4-oxothiazolidin-2-ylidene)urea] | 50 to 100 | 50 to 100 | 0 to 80 | – | – | – |
| COc1ccc(C(C)C)c(N2C(=O)CS/C2=N\C(=O)Nc2ccc(-c3ncn(-c4cccc(C(F)(F)F)c4)n3)cc2F)c1 [Compound J152, (Z)-1-(2-Fluoro-4-(1-(3-(trifluoromethyl)phenyl)-1H-1,2,4-triazol-3-yl)phenyl)-3-(3-(2-isopropyl-5-methoxyphenyl)-4-oxothiazolidin-2-ylidene)urea] | 50 to 100 | 50 to 100 | 0 to 80 | – | – | – |
| CC(C)c1ccc(N(C)C)cc1N1C(=O)CS/C1=N\C(=O)Nc1ccc(-c2ncn(-c3ccc(OC(F)(F)F)cc3)n2)cc1 [Compound J319, (Z)-1-(3-(5-(Dimethylamino)-2-isopropylphenyl)-4-oxothiazolidin-2-ylidene)-3-(4-(1-(4-(trifluoromethoxy)phenyl)-1H-1,2,4-triazol-3-yl)phenyl)urea] | 50 to 100 | 50 to 100 | 0 to 80 | – | – | – |
| COc1ccc(C(C)C)c(N2C(=O)CS/C2=N\C(=O)Nc2ccc(-c3ncn(-c4cccc(C(F)(F)F)c4)n3)cc2C)c1 [Compound J132, (Z)-1-(3-(2-Isopropyl-5-methoxyphenyl)-4-oxothiazolidin-2-ylidene)-3-(2-methyl-4-(1-(3-(trifluoromethyl)phenyl)-1H-1,2,4-triazol-3-yl)phenyl)urea] | 50 to 100 | 50 to 100 | 0 to 80 | – | – | – |
| COC(C)c1ccc(C#N)cc1N1C(=O)CS/C1=N\C(=O)Nc1ccc(-c2cn(-c3ccc(S(=O)(=O)C(F)(F)F)cc3)cn2)cc1F (stereo not drawn) [Compound J652, (Z)-1-(3-(5-Cyano-2-(1-methoxyethyl)phenyl)-4-oxothiazolidin-2-ylidene)-3-(2-fluoro-4-(1-(4-((trifluoromethyl)sulfonyl)phenyl)-1H-imidazol-4-yl)phenyl)urea] | – | – | – | 50 to 100 | 50 to 100 | 0 to 80 |
| COC(=O)c1ccc(C(C)C)c(N2C(=O)CS/C2=N\C(=O)Nc2ccc(-c3ncn(-c4ccc(OC(F)(F)F)cc4)n3)cc2F)c1 [Compound J104, Methyl (Z)-3-(2-(((2-fluoro-4-(1-(4-(trifluoromethoxy)phenyl)-1H-1,2,4-triazol-3-yl)phenyl)carbamoyl)imino)-4-oxothiazolidin-3-yl)-4-isopropylbenzoate] | 50 to 100 | 50 to 100 | 0 to 80 | – | – | – |
| Cc1ccc(COCc2ccc(OC(F)(F)F)cc2)c(N2C(=O)CS/C2=N\C(=O)Nc2ccc(-c3ncn(-c4ccc(OC(F)(F)F)cc4)n3)cc2F)c1 [Compound J570, (Z)-1-(2-Fluoro-4-(1-(4-(trifluoromethoxy)phenyl)-1H-1,2,4-triazol-3-yl)phenyl)-3-(3-(5-methyl-2-(((4-(trifluoromethoxy)benzyl)oxy)methyl)phenyl)-4-oxothiazolidin-2-ylidene)urea] | – | – | – | 50 to 100 | 50 to 100 | 0 to 80 |
| Cc1ccc(OCCC(F)(F)F)c(N2C(=O)CS/C2=N\C(=O)Nc2ccc(-c3ncn(-c4ccc(OC(F)(F)F)cc4)n3)cc2)c1 [Compound J316, (Z)-1-(3-(5-Methyl-2-(3,3,3-trifluoropropoxy)phenyl)-4-oxothiazolidin-2-ylidene)-3-(4-(1-(4-(trifluoromethoxy)phenyl)-1H-1,2,4-triazol-3-yl)phenyl)urea] | 50 to 100 | 50 to 100 | 0 to 80 | – | – | – |
| Cc1ccc(COCC(F)(F)F)c(N2C(=O)CS/C2=N\C(=O)Nc2ccc(-c3cn(-c4ccc(S(=O)(=O)C(F)(F)F)cc4)cn3)cc2F)c1 [Compound J647, (Z)-1-(2-Fluoro-4-(1-(4-((trifluoromethyl)sulfonyl)phenyl)-1H-imidazol-4-yl)phenyl)-3-(3-(5-methyl-2-((2,2,2-trifluoroethoxy)methyl)phenyl)-4-oxothiazolidin-2-ylidene)urea] | – | – | – | 50 to 100 | 50 to 100 | 0 to 80 |
| COc1ccc(C(C)C)c(N2C(=O)CS/C2=N\C(=O)Nc2ccc(-c3ncn(-c4cccc(OC(F)(F)F)c4)n3)cc2C)c1 [Compound J136, (Z)-1-(3-(2-Isopropyl-5-methoxyphenyl)-4-oxothiazolidin-2-ylidene)-3-(2-methyl-4-(1-(3-(trifluoromethoxy)phenyl)-1H-1,2,4-triazol-3-yl)phenyl)urea] | 50 to 100 | 50 to 100 | 0 to 80 | – | – | – |
| CC(C)c1ccc(N(C)C)cc1N1C(=O)CS/C1=N\C(=O)Nc1ccc(-c2ncn(-c3cccc(C(F)(F)F)c3)n2)cc1F [Compound J153, (Z)-1-(3-(5-(Dimethylamino)-2-isopropylphenyl)-4-oxothiazolidin-2-ylidene)-3-(2-fluoro-4-(1-(3-(trifluoromethyl)phenyl)-1H-1,2,4-triazol-3-yl)phenyl)urea] | 50 to 100 | 50 to 100 | 0 to 80 | – | – | – |
| COCc1ccc(C)cc1N1C(=O)CS/C1=N\C(=O)Nc1ccc(-c2ncn(-c3ccc(OC(F)(F)F)cc3)n2)cc1F [Compound J66, (Z)-1-(2-Fluoro-4-(1-(4-(trifluoromethoxy)phenyl)-1H-1,2,4-triazol-3-yl)phenyl)-3-(3-(2-(methoxymethyl)-5-methylphenyl)-4-oxothiazolidin-2-ylidene)urea] | 50 to 100 | 50 to 100 | 0 to 80 | – | – | – |
| Cc1ccc(OCC(F)(F)F)c(N2C(=O)CS/C2=N\C(=O)Nc2ccc(-c3ncn(-c4ccc(SC(F)(F)F)cc4)n3)cc2F)c1 [Compound J223, (Z)-1-(2-Fluoro-4-(1-(4-((trifluoromethyl)thio)phenyl)-1H-1,2,4-triazol-3-yl)phenyl)-3-(3-(5-methyl-2-(2,2,2-trifluoroethoxy)phenyl)-4-oxothiazolidin-2-ylidene)urea] | 50 to 100 | 50 to 100 | 0 to 80 | – | – | – |
| Cc1cc(-c2ncn(-c3ccc(OC(F)(F)F)cc3)n2)ccc1NC(=O)/N=C1\SCC(=O)N1c1ccc(N(C)C)cc1C(C)C [Compound J113, (Z)-1-(3-(4-(Dimethylamino)-2-isopropylphenyl)-4-oxothiazolidin-2-ylidene)-3-(2-methyl-4-(1-(4-(trifluoromethoxy)phenyl)-1H-1,2,4-triazol-3-yl)phenyl)urea] | 50 to 100 | 50 to 100 | 0 to 80 | – | – | – |
| Cc1ccc(C(C)C)c(N2C(=O)CS/C2=N\C(=O)Nc2ccc(-c3ncn(-c4ccc(C#N)cc4)n3)cc2F)c1 [Compound J287, (Z)-1-(4-(1-(4-Cyanophenyl)-1H-1,2,4-triazol-3-yl)-2-fluorophenyl)-3-(3-(2-isopropyl-5-methylphenyl)-4-oxothiazolidin-2-ylidene)urea] | 50 to 100 | 50 to 100 | 0 to 80 | – | – | – |
| Cc1ccc(C(C)C)c(N2C(=O)CS/C2=N\C(=O)Nc2ccc(-c3ncn(-c4ccc(OC(F)(F)F)cc4)n3)cc2C)c1 [Compound J1, (Z)-1-(3-(2-isopropyl-5-methylphenyl)-4-oxothiazolidin-2-ylidene)-3-(2-methyl-4-(1-(4-(trifluoromethoxy)phenyl)-1H-1,2,4-triazol-3-yl)phenyl)urea] | 50 to 100 | 50 to 100 | 0 to 80 | – | – | – |
| Cc1cc(-c2ncn(-c3cccc(OC(F)(F)F)c3)n2)ccc1NC(=O)/N=C1\SCC(=O)N1c1cc(N(C)C)ccc1C(C)C [Compound J137, (Z)-1-(3-(5-(Dimethylamino)-2-isopropylphenyl)-4-oxothiazolidin-2-ylidene)-3-(2-methyl-4-(1-(3-(trifluoromethoxy)phenyl)-1H-1,2,4-triazol-3-yl)phenyl)urea] | 50 to 100 | 50 to 100 | 0 to 80 | – | – | – |
| Cc1ccc(C(C)C)c(N2C(=O)CS/C2=N\C(=O)Nc2ccc(-c3ncn(-c4ccc(SC(F)(F)F)cc4)n3)cc2Cl)c1 [Compound J231, (Z)-1-(2-Chloro-4-(1-(4-((trifluoromethyl)thio)phenyl)-1H-1,2,4-triazol-3-yl)phenyl)-3-(3-(2-isopropyl-5-methylphenyl)-4-oxothiazolidin-2-ylidene)urea] | 50 to 100 | 50 to 100 | 0 to 80 | – | – | – |
